According to patent US8324390B2, “Tetrazole-substituted anthranilamides as pesticides” (Bayer CropScience AG, priority 2008, dated 2012):
Read-outs that look alike come from different tables or passages of the source.

Tests used:
[1] = test system: green peach aphid (Myzus persicae); test: Myzus test (MYZUPE spray treatment); type: in vivo; conditions: Myzus persicae, foliar, read-out: effect in % (aphids killed)
Source text: Solvent: 78 parts by weight of acetone
(§1) Solvent: 78.0 parts by weight of acetone

[2] = test system: larvae of the mustard beetle (Phaedon cochleariae); test: Phaedon test (PHAECO spray treatment); conditions: Phaedon cochleariae, in Brassica rapa, foliar, read-out: effect in % (beetle larvae killed)
[3] = log P determination by HPLC (EEC Directive 79/831 Annex V.A8); type: physicochemical
Experimental: The measurements were carried out using an Agilent 1100 LC system with a 50*4.6 Zorbax Eclipse C18 1.8 μm column (oven temperature 55° C., flow rate 2.0 ml/min).
The following mobile phases were used:
Mobile phase A: acetonitrile+1000 μl of formic acid/l
Mobile phase B: Millipore water+900 μl of formic acid/l

[4] = test system: caterpillars of the armyworm (Spodoptera frugiperda); test: Spodoptera frugiperda test (SPODFR spray treatment); type: in vivo; conditions: Spodoptera frugiperda, foliar, read-out: effect in % (caterpillars killed)
Source text: as §1

[5] = application rate 100 g/ha, Chinese cabbage leaf discs
[6] = reversed-phase HPLC, Zorbax Eclipse C18 column, by HPLC according to EEC Directive 79/831 Annex V.A8, read-out: log P
[7] = application rate 100 g/ha, maize leaf discs
[8] = reversed-phase HPLC, Zorbax Eclipse C18 column, determined by HPLC according to EEC Directive 79/831 Annex V.A8, read-out: log P

Cc1cc(Cl)cc(C(=O)NC2CC2)c1NC(=O)c1cc(Cn2nnnc2C(F)(F)C(F)(F)F)nn1-c1ncccc1Cl [Example 200]
pest or weed control at 100 g/ha ([1]; in Brassica rapa): ≥ 80%
pest or weed control at 100 g/ha [2]: ≥ 80%
chromatographic logP ([3]; log P): 3.32
pest or weed control at 100 g/ha ([4]; in Zea mays): ≥ 80%

Cc1cc(C#N)cc(C(=O)N[C@@H]2C[C@H]2CO)c1NC(=O)c1cc(Cn2nnc(C(F)(F)F)n2)nn1-c1ncccc1Cl [Example 76]
pest or weed control at 100 g/ha ([1]; in Brassica rapa): ≥ 80%
pest or weed control at 100 g/ha [2]: ≥ 80%
chromatographic logP ([3]; log P): 2.39
pest or weed control at 100 g/ha ([4]; in Zea mays): ≥ 80%

O=C(NC1CC1)c1cc(Cl)cc(Cl)c1NC(=O)c1cc(Cn2nnc(C(F)(C(F)(F)F)C(F)(F)F)n2)nn1-c1ncccc1Cl [Example 339]
pest or weed control at 100 g/ha ([1]; in Brassica rapa): ≥ 80%
pest or weed control at 100 g/ha [2]: ≥ 80%
chromatographic logP ([3]; log P): 3.89
pest or weed control at 100 g/ha ([4]; in Zea mays): ≥ 80%

Cc1cc(C#N)cc(C(N)=O)c1NC(=O)c1cc(Cn2nnc(C(F)(F)F)n2)nn1-c1ncccc1C(F)(F)F [Example 236]
pest or weed control at 100 g/ha [1, 5]: ≥ 80%
pest or weed control at 100 g/ha [2]: ≥ 80%
chromatographic logP [3, 6]: 2.67
pest or weed control at 100 g/ha [4, 7]: ≥ 80%

CNC(=O)c1cc(I)cc(C)c1NC(=O)c1cc(Cn2nnc(C(F)(F)F)n2)nn1-c1ncccc1Cl [Example 65]
pest or weed control at 100 g/ha ([1]; in Brassica rapa): ≥ 80%
pest or weed control at 100 g/ha [2]: ≥ 80%
chromatographic logP ([3]; log P): 3.21
pest or weed control at 100 g/ha ([4]; in Zea mays): ≥ 80%

Cc1cc(C#N)cc(C(=O)NC2CC2)c1NC(=O)c1cc(Cn2nnc(C(F)(F)F)n2)nn1-c1ccccc1Cl [Example 442]
pest or weed control at 100 g/ha [1, 5]: ≥ 80%
pest or weed control at 100 g/ha [2]: ≥ 80%
chromatographic logP [3, 8]: 3.29
pest or weed control at 100 g/ha [4, 7]: ≥ 80%

Cc1cc(Cl)cc(C(=O)NC(C)C)c1NC(=O)c1cc(Cn2nnnc2C(F)(F)F)nn1-c1ncccc1Br [Example 485]
pest or weed control at 100 g/ha [1, 5]: ≥ 80%
pest or weed control at 100 g/ha [2]: ≥ 80%
chromatographic logP [3, 8]: 3.14
pest or weed control at 100 g/ha [4, 7]: ≥ 80%

Cc1cc(C#N)cc(C(=O)NC2(C)CCC2)c1NC(=O)c1cc(Cn2nnc(C(F)(F)F)n2)nn1-c1ncccc1Cl [Example 89]
pest or weed control at 100 g/ha ([1]; in Brassica rapa): ≥ 80%
pest or weed control at 100 g/ha [2]: ≥ 80%
chromatographic logP ([3]; log P): 3.46
pest or weed control at 100 g/ha ([4]; in Zea mays): ≥ 80%

Cc1cc(C#N)cc(C(N)=O)c1NC(=O)c1cc(Cn2nnc(C(F)(F)C(F)(F)F)n2)nn1-c1ncccc1Br [Example 424]
pest or weed control at 100 g/ha [1, 5]: ≥ 80%
pest or weed control at 100 g/ha [2]: ≥ 80%
chromatographic logP [3, 8]: 2.8
pest or weed control at 100 g/ha [4, 7]: ≥ 80%

N#CCNC(=O)c1cc(Cl)cc(Cl)c1NC(=O)c1cc(Cn2nnc(C(F)(F)C(F)(F)F)n2)nn1-c1ncccc1Cl [Example 158]
pest or weed control at 100 g/ha ([1]; in Brassica rapa): ≥ 80%
pest or weed control at 100 g/ha [2]: ≥ 80%
chromatographic logP ([3]; log P): 3.32
pest or weed control at 100 g/ha ([4]; in Zea mays): ≥ 80%

CCNC(=O)c1cc(C#N)cc(C)c1NC(=O)c1cc(Cn2nnc(C(F)(F)F)n2)nn1-c1ncccc1Cl [Example 21]
pest or weed control at 100 g/ha ([1]; in Brassica rapa): ≥ 80%
pest or weed control at 100 g/ha [2]: ≥ 80%
chromatographic logP ([3]; log P): 2.85
pest or weed control at 100 g/ha ([4]; in Zea mays): ≥ 80%

Cc1cc(C#N)cc(C(=O)NC(C)C)c1NC(=O)c1cc(C(C)n2nnc(C(F)(F)F)n2)nn1-c1ncccc1Cl (stereo not drawn) [Example 438]
pest or weed control at 100 g/ha ([1]; in Brassica rapa): ≥ 80%
pest or weed control at 100 g/ha [2]: ≥ 80%
chromatographic logP ([3]; log P): 3.35
pest or weed control at 100 g/ha ([4]; in Zea mays): ≥ 80%

CNC(=O)c1cc(Cl)cc(Cl)c1NC(=O)c1cc(Cn2nnnc2C(F)F)nn1-c1ncccc1Cl [Example 476]
pest or weed control at 100 g/ha ([1]; in Brassica rapa): ≥ 80%
pest or weed control at 100 g/ha [2]: ≥ 80%
chromatographic logP ([3]; log P): 2.22
pest or weed control at 100 g/ha ([4]; in Zea mays): ≥ 80%

Cc1cc(C#N)cc(C(=O)NCC#N)c1NC(=O)c1cc(Cn2nnc(C(F)F)n2)nn1-c1ncccc1Cl [Example 271]
pest or weed control at 100 g/ha ([1]; in Brassica rapa): ≥ 80%
pest or weed control at 100 g/ha [2]: ≥ 80%
chromatographic logP ([3]; log P): 2.19
pest or weed control at 100 g/ha ([4]; in Zea mays): ≥ 80%

Cc1cc(Br)cc(C(=O)NC(C)C2CC2)c1NC(=O)c1cc(Cn2nnc(C(F)(F)F)n2)nn1-c1ncccc1Cl (stereo not drawn) [Example 31]
pest or weed control at 100 g/ha ([1]; in Brassica rapa): ≥ 80%
pest or weed control at 100 g/ha [2]: ≥ 80%
chromatographic logP ([3]; log P): 3.89
pest or weed control at 100 g/ha ([4]; in Zea mays): ≥ 80%

CNC(=O)c1cc(Br)cc(C)c1NC(=O)c1cc(Cn2nnc(C(F)(F)F)n2)nn1-c1ncccc1Br [Example 354]
pest or weed control at 100 g/ha [1, 5]: ≥ 80%
pest or weed control at 100 g/ha [2]: ≥ 80%
chromatographic logP [3, 6]: 3.12
pest or weed control at 100 g/ha [4, 7]: ≥ 80%

CNC(=O)c1cc(C#N)cc(C)c1NC(=O)c1cc(C(C)n2nnc(C(F)(F)F)n2)nn1-c1ncccc1Cl (stereo not drawn) [Example 542]
pest or weed control at 100 g/ha ([1]; in Brassica rapa): ≥ 80%
pest or weed control at 100 g/ha [2]: ≥ 80%
chromatographic logP ([3]; log P): 2.86
pest or weed control at 100 g/ha ([4]; in Zea mays): ≥ 80%

Cc1cc(C#N)cc(C(=O)NCC#N)c1NC(=O)c1cc(Cn2nnc(C(F)(F)F)n2)nn1-c1ccccc1Cl [Example 540]
pest or weed control at 100 g/ha [1, 5]: ≥ 80%
pest or weed control at 100 g/ha [2]: ≥ 80%
chromatographic logP [3, 8]: 2.97
pest or weed control at 100 g/ha [4, 7]: ≥ 80%

Cc1cc(Br)cc(C(=O)NC(C)(C)C)c1NC(=O)c1cc(Cn2nnnc2C(F)(F)F)nn1-c1ncccc1Cl [Example 182]
pest or weed control at 100 g/ha ([1]; in Brassica rapa): ≥ 80%
pest or weed control at 100 g/ha [2]: ≥ 80%
chromatographic logP ([3]; log P): 3.62
pest or weed control at 100 g/ha ([4]; in Zea mays): ≥ 80%

COCCNC(=O)c1cc(C#N)cc(C)c1NC(=O)c1cc(Cn2nnc(C(F)(F)F)n2)nn1-c1ccccc1Cl [Example 435]
pest or weed control at 100 g/ha [1, 5]: ≥ 80%
pest or weed control at 100 g/ha [2]: ≥ 80%
chromatographic logP [3, 8]: 3.18
pest or weed control at 100 g/ha [4, 7]: ≥ 80%

Cc1cc(Br)cc(C(N)=O)c1NC(=O)c1cc(Cn2nnc(C(F)(F)F)n2)nn1-c1ncccc1Cl [Example 44]
pest or weed control at 100 g/ha ([1]; in Brassica rapa): ≥ 80%
pest or weed control at 100 g/ha [2]: ≥ 80%
chromatographic logP ([3]; log P): 2.81
pest or weed control at 100 g/ha ([4]; in Zea mays): ≥ 80%

Cc1cc(C#N)cc(C(=O)NC(C)(C)C)c1NC(=O)c1cc(Cn2nnnc2C(F)F)nn1-c1ncccc1Cl [Example 464]
pest or weed control at 100 g/ha ([1]; in Brassica rapa): ≥ 80%
pest or weed control at 100 g/ha [2]: ≥ 80%
chromatographic logP ([3]; log P): 2.59
pest or weed control at 100 g/ha ([4]; in Zea mays): ≥ 80%

Cc1cc(Br)cc(C(=O)NC(C)C)c1NC(=O)c1cc(Cn2nnnc2C(F)(F)F)nn1-c1ncccc1Br [Example 501]
pest or weed control at 100 g/ha [1, 5]: ≥ 80%
pest or weed control at 100 g/ha [2]: ≥ 80%
chromatographic logP [3, 8]: 3.27
pest or weed control at 100 g/ha [4, 7]: ≥ 80%

CCNC(=O)c1cc(C#N)cc(C)c1NC(=O)c1cc(Cn2nnc(C(F)(F)F)n2)nn1-c1ncccc1Br [Example 322]
pest or weed control at 100 g/ha [1, 5]: ≥ 80%
pest or weed control at 100 g/ha [2]: ≥ 80%
chromatographic logP [3, 6]: 2.88
pest or weed control at 100 g/ha [4, 7]: ≥ 80%

Cc1cc(C#N)cc(C(=O)NC(C)(C)C)c1NC(=O)c1cc(Cn2nnnc2C(F)(F)F)nn1-c1ncccc1Br [Example 483]
pest or weed control at 100 g/ha [1, 5]: ≥ 80%
pest or weed control at 100 g/ha [2]: ≥ 80%
chromatographic logP [3, 8]: 3.07
pest or weed control at 100 g/ha [4, 7]: ≥ 80%

Cc1cc(C#N)cc(C(=O)NC2CC2)c1NC(=O)c1cc(Cn2nnnc2C(F)(F)F)nn1-c1ncccc1Cl [Example 166]
pest or weed control at 100 g/ha ([1]; in Brassica rapa): ≥ 80%
pest or weed control at 100 g/ha [2]: ≥ 80%
chromatographic logP ([3]; log P): 2.53
pest or weed control at 100 g/ha ([4]; in Zea mays): ≥ 80%

Cc1cc(F)cc(C(=O)NC(C)(C)C)c1NC(=O)c1cc(Cn2nnc(C(F)(F)C(F)(F)F)n2)nn1-c1ncccc1Cl [Example 221]
pest or weed control at 100 g/ha ([1]; in Brassica rapa): ≥ 80%
pest or weed control at 100 g/ha [2]: ≥ 80%
chromatographic logP ([3]; log P): 3.88
pest or weed control at 100 g/ha ([4]; in Zea mays): ≥ 80%
